# Where a SMILES comes first, the peptide text is derived from it.
# Legend:
# [1] = tested on: MC3T3-E1 cells; assay: Cell viability: LDH activity in culture media of cells on alginate hydrogels; assay type: cell-based, mouse; details: 24 h; 50 μg/ml in 2% alginate hydrogel
# Procedure: (§1) The mouse osteoblastic cell line MC3T3-E1 (DSMZ, Braunschweig, Germany) was maintained as previously described (Tiainen H et al., 2011). Before seeding, 24-well culture plates containing crosslinked alginate hydrogels were washed with 750 μl of culture media to remove the excess of CaCl2. After evaluation of the efficiency of cell adhesion on 2% alginate gel using different cell densities, for the final experiments, cells were seeded at a density of 100 000 cells/well. Media was refreshed twice a week. Culture media was collected 24 h after seeding to study cell viability. Cells were harvested at days 14 and 21 to analyze gene expression of adhesion and osteogenic-related markers using real-time RT-PCR. Cultures were routinely observed using light microscopy (Leica DMIRB, Leica Microsystems Wetzlar GmbH, Germany).
# The LDH activity determined in the culture media after 24 h was taken as an indicator of membrane leakage or cell lysis. The activity of the cytosolic enzyme was estimated as previously described (Rupert M at al., 2011).
# [2] = tested on: MC3T3-E1 cells; assay: Gene expression of cell adhesion and osteoblast markers by real-time RT-PCR, cells on alginate hydrogels; assay type: cell-based, mouse; details: 50 μg/ml in 2% alginate hydrogel
# Procedure: as §1
# Total RNA was isolated using Tripure® (Roche Diagnostics, Mannheim, Germany), according to the manufacturer's protocol. Total RNA was quantified at 260 nm using a Nanodrop spectrophotometer (NanoDrop Technologies, Wilmington, Del., USA).
# The same amount of RNA (350 ng) was reverse transcribed to cDNA using high capacity RNA-to-cDNA kit (Applied Biosystems, Foster City, Calif.), according to the protocol of the supplier. Aliquots of each cDNA were frozen (−20° C.) until the PCR reactions were carried out.
# Real-time PCR was performed in the Lightcycler 480® (Roche Diagnostics, Mannheim, Germany) using SYBR green detection. Real-time PCR was done for two reference genes (18SrRNA and glyceraldehyde-3-phosphate dehydrogenase (GAPDH)) and ten target genes (integrin alpha 8 (Itga8), integrin beta1 (Itgb1), integrin beta 3 (Itgb3), fibronectin 1 (Fn11), bone morphogenetic protein 2 (Bmp2), collagen type I (Coll-I), bone sialoprotein (Bsp), alkaline phosphatase (Alp), osteocalcin (Oc) and osteopontin (Opn)).
# The primer sequences are detailed in Table 2. Reaction conditions and relative quantification have been done as previously described (Tiainen H et al., 2011).
# [3] = Peptide release profile from 2% alginate hydrogel (fluorescence spectroscopy); assay type: physicochemical
# Procedure: To study the peptide release profile, P2 was labeled with FITC. The release of peptide contained into the 2% alginate hydrogel (50 μg/ml) was quantified by fluorescence spectroscopy. First, alginate hydrogels were washed with culture media to remove the excess of CaCl2. Then, 750 μl of cell culture media were added onto peptide loaded alginate hydrogel. The samples were incubated at 37° C. and 5% CO2 for 21 days and cell culture media was changed twice a week. At prefixed time points (24 h, 4 d, 7 d, 11 d, 14 d, 18 d and 21 d), supernatants were collected and analyzed by fluorescence spectroscopy (λ ex 490 nm and λ em 525 nm) to determine the amount of peptide released to the media. The amount of peptide released during the washing step was also measured. The experiment was performed three times, and each sample analyzed in triplicate.
# Relative fluorescence units were correlated with the amount of peptide released using a linear standard curve for each time point.
# [4] = Peptide 2 release profile from TiO2 scaffolds coated with 2% alginate gel (UV-Vis 206 nm); assay type: physicochemical; details: P2-alginate-coated TiO2 scaffolds, distilled water, 37° C.
# Procedure: TiO2 scaffolds coated with 2% alginate containing peptide 2 (P2-alginate-coated scaffold) were placed into 48-well plates (Nunc GmBh & Co. Kg, Langenselbold, Germany) containing 1 ml distilled water (pH 7.4). In order to mimic cell culture conditions, the samples were agitated on an orbital shaker at 200 rpm (IKA® Schüttler MTS 2, Germany) for 6 h at 37° C. and in humidity conditions (using a distilled water container). Then, samples were maintained at 37° C. in a humidified atmosphere for up to 21 days. At prefixed time points (2d, 5d, 7d, 9d, 12d, 14d, 16d, 19d and 21d), distilled water was collected and fresh distilled water was added into each well. Sample absorbances were analyzed by UV-Vis spectrophotometer (PerkinElmer® Lambda 25 UV/Vis Systems, USA) at a wavelength of 206 nm to determine the amount of peptide released. In parallel, […] scaffolds coated with one layer of 2% alginate gel were used as control to subtract absorbance values obtained from degradation products from alginate.
# Relative absorbance units were correlated with the amount of peptide released using a linear standard curve for each time point and the cumulative P2 released was then calculated. The experiment was performed in triplicate.
# [5] = tested on: primary human osteoblasts; assay: Cytotoxicity assay (LDH activity in culture medium), SIM containing scaffolds; assay type: cell-based; details: for LDH activity compared to alginate-coated scaffolds without SIM: 14-day period
# Procedure: Cells from passages 7-9 were seeded on scaffolds at a density of 400.000 cells/ml. […] Scaffolds soaked with culture medium were placed in 48-well culture plates. […] The culture medium was replaced every other day. Collected medium was saved for use in cytotoxicity, alkaline phosphatase (ALP) activity and protein expression assays.
# [6] = FITC-labeled P2, 50 μg/ml in 2% alginate hydrogel, culture media, 37° C.
Molecule,"Oc mRNA levels ([2]; 21 days, vs control)","Expression of Opn ([2]; 14 days, vs control)","Fn1 mRNA levels ([2]; 14 days, vs control)","Itgb1 mRNA levels ([2]; 14 days, vs control)","Itgb3 mRNA levels ([2]; 14 days, vs control)",Fn1 mRNA levels ([2]; 21 days),Itgb3 mRNA levels ([2]; 21 days),"ALP mRNA levels ([2]; 21 days, vs control)",also measured
"PLVPSSPLVPCCPLVPCCPSPPLPP (Synthetic biomineralizing peptide) [P5, synthetic proline-rich peptide]",increased,–,–,–,–,–,–,–,"toxic effects compared to EMD and to untreated alginate gel [1]: significantly lower toxic effects; Itga8 mRNA expression ([2]; 21 days, vs control alginate hydrogel): increased"
CC(C)C[C@H](NC(=O)[C@@H]1CCCN1)C(=O)N[C@H](C(=O)N1CCC[C@H]1C(=O)N[C@@H](CO)C(=O)N[C@@H](CCC(N)=O)C(=O)N1CCC[C@H]1C(=O)N[C@@H](CC(C)C)C(=O)N[C@H](C(=O)N1CCC[C@H]1C(=O)N[C@@H](CO)C(=O)N[C@@H](CCC(N)=O)C(=O)N1CCC[C@H]1C(=O)N[C@@H](CC(C)C)C(=O)N[C@H](C(=O)N1CCC[C@H]1C(=O)N[C@@H](CO)C(=O)N[C@@H](CCC(N)=O)C(=O)N1CCC[C@H]1C(=O)N[C@@H](CCC(N)=O)C(=O)N1CCC[C@H]1C(=O)N1CCC[C@H]1C(=O)N[C@@H](CC(C)C)C(=O)N1CCC[C@H]1C(=O)N1CCC[C@H]1C(=O)O)C(C)C)C(C)C)C(C)C [P2] (H-PLVPSQPLVPSQPLVPSQPQPPLPP-OH),–,decreased significantly,decreased significantly,significantly decreased,decreased significantly,no differences were observed,no differences were observed,significantly decreased,"total peptide theoretically contained in the alginate hydrogel not released after 21 days ([3]; FITC-labeled P2, 50 μg/ml in 2% alginate hydrogel, 37° C.): 5.6%; burst release of the peptide during the first 24 h of incubation [3, 6]: 54.67%; peptide slowly released up to 11 days [3, 6]: 25.8%; loaded peptide released during the washing step ([3]; washing of alginate hydrogels with culture media to remove excess CaCl2): 12.7%; cell viability compared to EMD [1]: significantly increased; Bmp2 relative mRNA levels ([2]; 21 days, vs EMD): decreased; amount of peptide released after 5 days [4]: 9.4 % of the cumulative amount rel; burst release of the peptide during the first 2 days of incubation [4]: 42.8 % of the cumulative amount of P2 released after 21 days"
"CCC(C)(C)C(=O)O[C@H]1C[C@@H](C)C=C2C=C[C@H](C)[C@H](CC[C@@H]3C[C@@H](O)CC(=O)O3)[C@H]21 [SIM, simvastatin]",–,–,–,–,–,–,–,–,"LDH activity compared to alginate-coated scaffolds without SIM ([5]; 10 nM SIM): Neither of the SIM concentrations caused a significant increase; LDH activity compared to alginate-coated scaffolds without SIM ([5]; 10 μM SIM): Neither of the SIM concentrations caused a significant increase; LDH activity, scaffolds with 10 μM SIM compared to scaffolds with 10 nM SIM ([5]; throughout the 14-day period): higher LDH activity"
"PHQPMQPQPPVHPMQPLPPQPPLPP (Synthetic biomineralizing peptide) [P6, synthetic proline-rich peptide]",increased,decreased significantly,decreased significantly,significantly decreased,decreased significantly,no differences were observed,no differences were observed,significantly decreased,"Bmp2 relative mRNA levels ([2]; 14 days, sentence ends 'compared to EMD'): increased significantly; ALP mRNA levels ([2]; 14 days, vs control): significantly decreased; Itgb1 mRNA levels ([2]; 21 days, vs EMD): reduced significantly"
